The text below walks through data of patent US20080300280A1, “Cyanobenzene Compounds for Combating Animal Pests” (priority 2005, published 2008).

Like-named read-outs stand apart in the source and are kept apart here. Bounds are passed on as bounds.

Assay type in all cases: in vivo
Assay [1] has as its system Cotton Aphid (aphis gossypii), mixed life stages. The assay is described as follows: Cotton aphid (Aphis gossypii), mixed life stages, leaf-dip test on cotton plants. As to conditions: 120 h, read-out: mortality of cotton aphid in comparison with untreated controls. How it is done: (§1) The active compounds were formulated in a mixture of 50 vol.-% acetone:50 vol.-% water. A nonionic surfactant (Kinetic®) was included in the solution at a volume of 0.01% v/v.
(§2) In the following tests, the formulated solutions of the active compounds were diluted to an active ingredient concentration of 300 ppm and the diluted solutions were applied in the below mentioned tests.
II.1 Cotton Aphid (aphis gossypii), Mixed Life Stages
Cotton plants at the cotyledon stage were infested prior to treatment by placing a heavily infested leaf from the main aphid colony on top of each cotyledon. The aphids were allowed to transfer overnight and the host leaf was removed. The infested cotyledons were then dipped and agitated in the test solution for 3 seconds and allowed to dry in a fume hood. Test plants were maintained under fluorescent lighting in a 24-hr photoperiod at 25° C. and 20-40% relative humidity. Aphid mortality on the treated plants, relative to mortality on untreated check plants, was determined after 5 days.

A further assay concerns Bean Aphid (Aphis fabae). The assay can be described thus: Bean aphid (Aphis fabae), plant-dip test on nasturtium plants. The settings on record: 72 h, read-out: mortality of bean aphid in comparison with untreated controls. The method, then:
as §1, §2
11.3 Bean Aphid (Aphis fabae)
Nasturtium plants grown in Metro mix in the 1st leaf-pair stage (variety ‘Mixed Jewel’) were infested with approximately 2-30 laboratory-reared aphids by placing infested cut plants on top of the test plants. The cut plants were removed after 24 hr. Each plant was dipped into the test solution to provide complete coverage of the foliage, stem, protruding seed surface and surrounding cube surface and allowed to dry in the fume hood. The treated plants were kept at about 25° C. with continuous fluorescent light. Aphid mortality is determined after 3 days.

The subject of assay [2] is Green Peach Aphid (Myzus persicae), mixed life stages. The assay can be described thus: Green peach aphid (Myzus persicae), mixed life stages, leaf-dip test on bell pepper plants. As to conditions: 120 h, read-out: mortality of green peach aphid in comparison with untreated controls. How it is done:
as §1, §2
II.2 Green Peach Aphid (Myzus persicae), Mixed Life Stages
Bell pepper plants at the first true-leaf stage were infested prior to treatment by placing heavily infested leaves from the main aphid colony on top of the treatment plants. The aphids were allowed to transfer overnight to accomplish an infestation of 30-40 aphids per plant and the host leaves were removed. The infested leaves of the test plants were then dipped and agitated in the test solution for 3 seconds and allowed to dry in a fume hood. Test plants were maintained under fluorescent lighting in a 24-hr photoperiod at 25° C. and 20-40% relative humidity. Aphid mortality on the treated plants, relative to mortality on untreated check plants, was determined after 5 days.

[3] abbreviates: 300 ppm, infested cotton cotyledons dipped 3 seconds, after 5 days.
Setting [4] is: 300 ppm, infested nasturtium plants dipped, after 3 days.
Setting [5] is: 300 ppm, infested bell pepper leaves dipped 3 seconds, after 5 days.

In general, mortality refers to the share of the test organisms that died. On to `Cc1cccc(S(=O)(=O)N2CCCC2=O)c1C#N` [Example 18, 2-Methyl-6-(2-oxo-pyrrolidine-1-sulfonyl)benzonitrile], for which the mortality at 300 ppm (in assay [1] (setting [3]); in the assay on Bean Aphid (Aphis fabae) (setting [4])) was no less than 86% throughout.
For `CC(=O)OCc1ccn(S(=O)(=O)c2cccc(C)c2C#N)c1` [Example 44], the mortality at 300 ppm (in assay [1] (setting [3]); in assay [2] (setting [5]); in the assay on Bean Aphid (Aphis fabae) (setting [4])) was no less than 86% throughout.
Consider `CC(=O)NS(=O)(=O)c1cccc(C)c1C#N` [Example 1], for which the mortality at 300 ppm in assay [1] (setting [3]) and in assay [2] (setting [5]) was no less than 86% in each case.
For `CCN(C(C)=O)S(=O)(=O)c1cccc(C)c1C#N` [Example 2, N-Acetyl-N-ethyl-2-cyano-3-methyl-benzene-sulfonamide], the mortality at 300 ppm (in assay [1] (setting [3]); in assay [2] (setting [5]); in the assay with Bean Aphid (Aphis fabae) (setting [4])) was no less than 86% each time.
For the compound `COc1cccc(S(=O)(=O)N(OC)C(C)=O)c1C#N` [Example 3], the mortality at 300 ppm in assay [1] (setting [3]) and in assay [2] (setting [5]) was no less than 86% throughout.
On to `Cc1cccc(S(=O)(=O)NC(=O)Oc2ccccc2)c1C#N` [Example 25], for which the mortality at 300 ppm (in assay [1]; in the assay on Bean Aphid (Aphis fabae)) was no less than 86% in each case.
As for `N#Cc1c(OC(F)F)cccc1S(=O)(=O)n1cccc1` [Example 42], the mortality at 300 ppm (in assay [1] (setting [3]); in assay [2] (setting [5]); with Bean Aphid (Aphis fabae) (setting [4])) was no less than 86% throughout.
On to `CCN(C(=O)Oc1ccccc1)S(=O)(=O)c1cccc(C)c1C#N` [Example 26], for which the mortality at 300 ppm (in assay [1]; in the assay with Bean Aphid (Aphis fabae)) was no less than 86% each time.
As for `Cc1cccc(S(=O)(=O)NC(=O)OCc2ccccc2)c1C#N` [Example 28, N-(Benzyloxycarbonyl)-2-cyano-3-methyl-benzenesulfonamide], the mortality at 300 ppm in assay [1] and in assay [2] was no less than 86% throughout.
As to `C=CC(=O)N(CC)S(=O)(=O)c1cccc(C)c1C#N` [Example 10], the mortality at 300 ppm in assay [1] (setting [3]) was no less than 86%.
Consider `CCN(C(C)=O)S(=O)(=O)c1cccc(OC(F)F)c1C#N` [Example 15], for which the mortality at 300 ppm (in assay [1] (setting [3]); in assay [2] (setting [5]); in the assay on Bean Aphid (Aphis fabae) (setting [4])) was no less than 86% in each case.
For `CCN(C(=O)c1ccccc1)S(=O)(=O)c1cccc(C)c1C#N` [Example 17], the mortality at 300 ppm (in assay [1] (setting [3]); in the assay with Bean Aphid (Aphis fabae) (setting [4])) was no less than 86% each time.
Turning to `CCOC(=NS(=O)(=O)c1cccc(OC(F)F)c1C#N)OCC` [Example 33], the mortality at 300 ppm (in assay [1] (setting [3]); in assay [2] (setting [5]); in the assay with Bean Aphid (Aphis fabae) (setting [4])) was no less than 86% throughout.
`CCC(=O)N(CC)S(=O)(=O)c1cccc(C)c1C#N` [Example 5]: the mortality at 300 ppm (in assay [1] (setting [3]); in assay [2] (setting [5]); in the assay with Bean Aphid (Aphis fabae) (setting [4])) was no less than 86% throughout.
On to `CCN(C(=O)C(F)(F)F)S(=O)(=O)c1cccc(C)c1C#N` [Example 6], for which the mortality at 300 ppm (in assay [1] (setting [3]); in assay [2] (setting [5]); in the assay on Bean Aphid (Aphis fabae) (setting [4])) was no less than 86% in each case.
As for `Cc1cccc(S(=O)(=O)N=S2CCCC2)c1C#N` [Example 38, 2-Cyano-3-methyl-N-(tetrahydro-thiphophen-1-ylidene)benzenesulfonamide], the mortality at 300 ppm (in assay [1] (setting [3]); in assay [2] (setting [5]); in the assay with Bean Aphid (Aphis fabae) (setting [4])) was no less than 86% in each case.
In the case of `CO/C(C)=N\S(=O)(=O)c1cccc(C)c1C#N` [Example 34, 2-Cyano-N-(1-methoxyethylidene)-3-methyl-benzenesulfonamide], the mortality at 300 ppm in assay [1] (setting [3]) and in assay [2] (setting [5]) was no less than 86% each time.
Take `CCO/C(=N\S(=O)(=O)c1cccc(C)c1C#N)NC(C)(C)C` [Example 30]: the mortality at 300 ppm in the assay with Bean Aphid (Aphis fabae) (setting [4]) is no less than 86%.
Regarding `CCNC(=O)N(CC)S(=O)(=O)c1cccc(C)c1C#N` [Example 21], the mortality at 300 ppm (in assay [1] (setting [3]); in assay [2] (setting [5]); with Bean Aphid (Aphis fabae) (setting [4])) was no less than 86% each time.
As to `CCC(=O)NS(=O)(=O)c1cccc(C)c1C#N` [Example 13], the mortality at 300 ppm (in assay [1] (setting [3]); in assay [2] (setting [5]); with Bean Aphid (Aphis fabae) (setting [4])) was no less than 86% throughout.
With `CCC(C)NC(=O)N(CC)S(=O)(=O)c1cccc(C)c1C#N` (centres unmarked) [Example 24], in assay [1] (setting [3]), the mortality at 300 ppm was no less than 86%.
As to `Cc1cccc(S(=O)(=O)N2CCCCC2=O)c1C#N` [Example 19], the mortality at 300 ppm in assay [1] (setting [3]) is no less than 86%.
In the case of `N#Cc1c(OC(F)F)cccc1S(=O)(=O)N=S1CCCC1` [Example 39], the mortality at 300 ppm in assay [1] (setting [3]) and in assay [2] (setting [5]) was no less than 86% each time.
As for `C/C(=N\S(=O)(=O)c1cccc(C)c1C#N)C(C)(C)C` [Example 37, 2-Cyano-3-methyl-N-(1,2,2-trimethyl-propylidene)-benzenesulfonamide], the mortality at 300 ppm (in assay [1] (setting [3]); in assay [2] (setting [5]); with Bean Aphid (Aphis fabae) (setting [4])) was no less than 86% throughout.
As to `Cc1cccc(S(=O)(=O)n2cccc2)c1C#N` [Example 41, 2-Methyl-6-(pyrrole-1-sulfonyl)-benzonitrile], the mortality at 300 ppm (in assay [1] (setting [3]); in assay [2] (setting [5]); in the assay with Bean Aphid (Aphis fabae) (setting [4])) was no less than 86% in each case.
For the compound `Cc1cccc(S(=O)(=O)n2ccnc2)c1C#N` [Example 48, 2-Methyl-6-(imidazole-1-sulfonyl)-benzonitrile], the mortality at 300 ppm in assay [1] (setting [3]) and in assay [2] (setting [5]) was no less than 86% each time.
Take `C=CCOC(=O)N(CC)S(=O)(=O)c1cccc(C)c1C#N` [Example 27]: the mortality at 300 ppm (in assay [1]; in assay [2]; in the assay on Bean Aphid (Aphis fabae)) was no less than 86% throughout.
For `Cc1cccc(S(=O)(=O)n2ccc(Br)c2)c1C#N` [Example 45, 2-Methyl-6-(3-bromo-pyrrole-1-sulfonyl)-benzonitrile], the mortality at 300 ppm in assay [1] (setting [3]) and in assay [2] (setting [5]) was no less than 86% in each case.
With `CC(=O)N(C(C)C)S(=O)(=O)c1cccc(C)c1C#N` [Example 9], the mortality at 300 ppm in assay [1] (setting [3]) and in assay [2] (setting [5]) was no less than 86% throughout.
As to `CCOC(=NS(=O)(=O)c1cccc(C)c1C#N)OCC` [Example 31], the mortality at 300 ppm (in assay [1] (setting [3]); in assay [2] (setting [5]); in the assay on Bean Aphid (Aphis fabae) (setting [4])) was no less than 86% throughout.
`C#CCN(C(=O)CC)S(=O)(=O)c1cccc(C)c1C#N` [Example 8]: the mortality at 300 ppm (in assay [1] (setting [3]); in assay [2] (setting [5]); in the assay with Bean Aphid (Aphis fabae) (setting [4])) was no less than 86% in each case.
In the case of `CCN(C(=O)NC(C)C)S(=O)(=O)c1cccc(C)c1C#N` [Example 23], the mortality at 300 ppm (in assay [1] (setting [3]); in assay [2] (setting [5]); in the assay with Bean Aphid (Aphis fabae) (setting [4])) was no less than 86% throughout.
For `C#CCN(C(C)=O)S(=O)(=O)c1cccc(C)c1C#N` [Example 7], the mortality at 300 ppm (in assay [1] (setting [3]); in assay [2] (setting [5]); with Bean Aphid (Aphis fabae) (setting [4])) was no less than 86% each time.
As to `COC(=NS(=O)(=O)c1cccc(C)c1C#N)OC` [Example 32, 2-Cyano-N-dimethoxymethylene-3-methyl-benzenesulfonamide], the mortality at 300 ppm (in assay [1] (setting [3]); in the assay on Bean Aphid (Aphis fabae) (setting [4])) was no less than 86% throughout.
Consider `Cc1cccc(S(=O)(=O)NC(=O)C(C)C)c1C#N` [Example 14], for which the mortality at 300 ppm (in assay [1] (setting [3]); in assay [2] (setting [5]); with Bean Aphid (Aphis fabae) (setting [4])) was no less than 86% throughout.
Consider `Cc1cccc(S(=O)(=O)N=S(C(C)C)C(C)C)c1C#N` [Example 40], for which the mortality at 300 ppm in assay [1] (setting [3]) and in assay [2] (setting [5]) was no less than 86% in each case.
In the case of `Cc1cccc(S(=O)(=O)N(C(=O)C(F)(F)F)C(C)C)c1C#N` [Example 12], the mortality at 300 ppm (in assay [1] (setting [3]); in assay [2] (setting [5]); in the assay with Bean Aphid (Aphis fabae) (setting [4])) was no less than 86% in each case.
Turning to `CO/C(C)=N\S(=O)(=O)c1cccc(OC(F)F)c1C#N` [Example 36], the mortality at 300 ppm (in assay [1] (setting [3]); in assay [2] (setting [5]); with Bean Aphid (Aphis fabae) (setting [4])) was no less than 86% throughout.
Consider `Cc1cccc(S(=O)(=O)n2ccc(CO)c2)c1C#N` [Example 43], for which the mortality at 300 ppm in assay [1] (setting [3]) and in assay [2] (setting [5]) was no less than 86% throughout.
Regarding `CCN(C(=O)Nc1ccccc1)S(=O)(=O)c1cccc(C)c1C#N` [Example 22, N-Ethyl-N-(2-cyano-3-methyl-benzenesulfonyl)-N′-phenyl urea], the mortality at 300 ppm in assay [1] (setting [3]) and in assay [2] (setting [5]) was no less than 86% in each case.
Regarding `CCN(C(C)=O)S(=O)(=O)c1c(F)ccc(OC)c1C#N` [Example 16], the mortality at 300 ppm in assay [1] (setting [3]) and in assay [2] (setting [5]) was no less than 86% throughout.
